Paper PMC5890937 (European journal of medicinal chemistry, 2017)
“And” between values parts separate entries of the source, which are not always exact repeats. Identical values can stand only once.

How the values were obtained:
HDAC6 [1] = details: cited from earlier work
HDAC8 = details: read-out: IC50 with HDAC8; cited from earlier work
HeLa cell lysates = test: Global HDAC inhibition with HeLa cell lysates; format: biochemical, human; details: HeLa cell lysates IC50 relative to SAHA
HDAC6 [2] = molecular target: T1, HDAC6 (Homo sapiens, UniProt Q9UBN7); test: ELISA-based HDAC activity assay, HDAC6; format: biochemical; details: for isoform selectivity in single concentration screen (HDAC6 versus HDAC1, 2, 3): 1a-f at 0.75, 0.75, 2.5, 1.25, 2.5, and 5 μM, SAHA at 1 μM; for HDAC6 selectivity over HDAC1, 2, and 3 / fold selectivity for HDAC6 and HDAC8 over HDAC1, 2, and 3: from IC50 values
T1 sequence (Q9UBN7 1-1215): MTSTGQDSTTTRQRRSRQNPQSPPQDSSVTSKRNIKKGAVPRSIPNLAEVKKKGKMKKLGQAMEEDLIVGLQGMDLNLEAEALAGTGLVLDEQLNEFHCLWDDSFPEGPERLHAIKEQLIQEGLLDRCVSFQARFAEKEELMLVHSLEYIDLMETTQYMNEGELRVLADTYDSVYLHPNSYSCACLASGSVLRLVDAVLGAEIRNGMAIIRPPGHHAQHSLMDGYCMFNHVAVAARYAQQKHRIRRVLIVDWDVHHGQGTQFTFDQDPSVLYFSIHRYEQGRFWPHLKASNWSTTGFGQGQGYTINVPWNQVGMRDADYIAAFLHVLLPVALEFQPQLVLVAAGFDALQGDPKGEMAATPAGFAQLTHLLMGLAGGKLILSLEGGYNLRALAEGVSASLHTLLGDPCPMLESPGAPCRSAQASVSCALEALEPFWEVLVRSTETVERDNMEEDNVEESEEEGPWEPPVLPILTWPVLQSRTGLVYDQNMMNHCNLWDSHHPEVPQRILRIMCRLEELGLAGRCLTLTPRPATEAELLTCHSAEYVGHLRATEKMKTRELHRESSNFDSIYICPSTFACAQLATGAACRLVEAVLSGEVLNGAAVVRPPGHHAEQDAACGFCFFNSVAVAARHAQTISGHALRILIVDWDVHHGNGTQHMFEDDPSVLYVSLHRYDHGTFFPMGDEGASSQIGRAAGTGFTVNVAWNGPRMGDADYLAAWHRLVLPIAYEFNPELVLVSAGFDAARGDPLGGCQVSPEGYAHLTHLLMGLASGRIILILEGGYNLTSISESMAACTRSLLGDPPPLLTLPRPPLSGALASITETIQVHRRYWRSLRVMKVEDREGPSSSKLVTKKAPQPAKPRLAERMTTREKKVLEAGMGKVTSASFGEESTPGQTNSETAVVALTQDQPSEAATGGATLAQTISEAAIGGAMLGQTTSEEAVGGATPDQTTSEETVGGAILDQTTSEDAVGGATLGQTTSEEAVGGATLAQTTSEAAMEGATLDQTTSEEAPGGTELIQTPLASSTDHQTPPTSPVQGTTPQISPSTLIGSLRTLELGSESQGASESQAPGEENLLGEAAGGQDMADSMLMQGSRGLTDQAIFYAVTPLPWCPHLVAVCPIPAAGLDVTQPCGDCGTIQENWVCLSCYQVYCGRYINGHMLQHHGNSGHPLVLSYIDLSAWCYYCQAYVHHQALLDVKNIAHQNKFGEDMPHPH

acetyl-α-tubulin (AcTub) = test: In cellulo selectivity testing, western blot of acetyl-α-tubulin in U937 cells; format: cell-based, human; details: SAHA 5 μM, 1f 20-60 μM, 18 hours

SMILES: O=C(CCCC(CCC(=O)Nc1ccccc1)Cc1ccccc1)NO (centres unmarked) [C5-benzyl SAHA]
- HDAC6/8 selectivity (HDAC6 [1]): 8- to 21 fold
- IC50 (HDAC6 [1]; read-out: IC50 with HDAC6): 270 nM
- IC50 (HDAC8): 380 nM

SMILES: CCCC(CCC)C(=O)NO [Valpropylhydroxamic acid]
- selectivity for HDAC6 and 8 against HDAC1, 2, and 3 (HDAC6 [1]): 9-17 fold

SMILES: CC(CCCC(=O)Nc1ccccc1)CCC(=O)NO (centres unmarked) [Compound 1a, N^1-hydroxy-4-methyl-N^8-phenyloctanediamide]
- fold less potent compared to SAHA (HeLa cell lysates): 18 fold
- isoform selectivity in single concentration screen (HDAC6 versus HDAC1, 2, 3) (HDAC6 [2]): smallest difference in potency

SMILES: O=C(CCC(CCCC(=O)Nc1ccccc1)Cc1ccccc1)NO (centres unmarked) [Compound 1f, 4-benzyl-N^1-hydroxy-N^8-phenyloctanediamide]
- isoform selectivity in single concentration screen (HDAC6 versus HDAC1, 2, 3) (HDAC6 [2]): greatest difference in potency
- HDAC6 selectivity over HDAC1, 2, and 3 (HDAC6 [2]): at least 210 fold
- fold selectivity for HDAC6 and HDAC8 over HDAC1, 2, and 3 (HDAC6 [2]): 210- to 740 fold
- levels of acetyl-α-tubulin (HDAC6 substrate) (acetyl-α-tubulin (AcTub)): dose-dependent increase

SMILES: O=C(CC[C@@H](CCCC(=O)Nc1ccccc1)Cc1ccccc1)NO [(R)-1f, (R)-4-benzyl-N^1-hydroxy-N^8-phenyloctanediamide]
- fold selectivity for HDAC6 and HDAC8 over HDAC1, 2, and 3 (HDAC6 [2]): 520- to 1300 fold

SMILES: CCCCCCC(CCCC(=O)Nc1ccccc1)CCC(=O)NO (centres unmarked) [Compound 1d, 4-hexyl-N^1-hydroxy-N^8-phenyloctanediamide]
- HDAC6 selectivity over HDAC1, 2, and 3 (HDAC6 [2]): at least 210 fold
- fold selectivity for HDAC6 and HDAC8 over HDAC1, 2, and 3 (HDAC6 [2]): 170- to 480 fold and 210- to 480 fold

SMILES: O=C(CC[C@H](CCCC(=O)Nc1ccccc1)Cc1ccccc1)NO [(S)-1f, (S)-4-benzyl-N^1-hydroxy-N^8-phenyloctanediamide]
- fold selectivity for HDAC6 and HDAC8 over HDAC1, 2, and 3 (HDAC6 [2]): 240- to 540 fold
